Experimental data: patent US12685312B2, “Sulfonamide apyrase inhibitors” (Texas Crop Science, Inc., priority 2022, dated 2026)

test system: apyrase; assay: Screen for apyrase inhibitors (Method 1, in vitro phosphate-release absorbance assay); format: biochemical; conditions: inhibitor conc at 1 mM stock, 1 hr room temperature, absorbance 630 nm; rounded average of two assay results
In short: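 Phosphate-release colorimetric assay (Windsor method) in 60 mM Hepes, 3 mM MgCl2, 3 mM CaCl2, 3 mM ATP, pH 6.5, with compound or DMSO control added. Released phosphate developed with ammonium molybdate and ascorbic acid/TCA, then stopped with citrate/acetic acid.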

% Inhibition of Apyrase [%] | SMILES
37 | CN(C(=O)c1ccccc1S(=O)(=O)N(C)c1ccccc1)c1ccccc1 [I-815, N-methyl-2-(N-methyl-N-phenylsulfamoyl)-N-phenylbenzamide]
29 | CN(c1ccccc1)S(=O)(=O)c1ccccc1C(=O)Nc1ccc(C(N)=O)cc1 [I-816, N-(4-carbamoylphenyl)-2-(N-methyl-N-phenylsulfamoyl)benzamide]
64 | Cc1ccc(C(=O)Nc2ccccc2S(=O)(=O)Nc2ccccc2)cc1F [I-817, 3-fluoro-4-methyl-N-(2-(N-phenylsulfamoyl)phenyl)benzamide]
60 | COc1ccc(NS(=O)(=O)c2cc(C)ccc2NC(=O)c2cc(C)oc2C)cc1 [I-818, N-(2-(N-(4-methoxyphenyl)sulfamoyl)-4-methylphenyl)-2,5-dimethylfuran-3-carboxamide]
57 | CCOc1ccc(NS(=O)(=O)c2c(C)cccc2NC(=O)c2ccccc2OC)cc1 [I-820, N-(2-(N-(4-ethoxyphenyl)sulfamoyl)-3-methylphenyl)-2-methoxybenzamide]
56 | CCOc1ccc(NS(=O)(=O)c2c(C)cccc2NC(=O)c2ccc(Cl)cc2)cc1 [I-821, 4-chloro-N-(2-(N-(4-ethoxyphenyl)sulfamoyl)-3-methylphenyl)benzamide]
54 | COc1ccc(NC(=O)c2cccc(S(=O)(=O)N3CC(C)CC(C)C3)c2)c(S(=O)(=O)Nc2ccccc2Cl)c1 (centres unmarked) [I-822, N-(2-(N-(2-chlorophenyl)sulfamoyl)-4-methoxyphenyl)-3-((3,5-dimethylpiperidin-1-yl)sulfonyl)benzamide]
53 | Cc1ccc(NC(=O)c2sccc2C)c(S(=O)(=O)Nc2ccc(I)cc2)c1 [I-823, N-(2-(N-(4-iodophenyl)sulfamoyl)-4-methylphenyl)-3-methylthiophene-2-carboxamide]
52 | CN(C1CCCCC1)S(=O)(=O)c1ccccc1NC(=O)c1c(F)cccc1F [I-824, N-(2-(N-cyclohexyl-N-methylsulfamoyl)phenyl)-2,6-difluorobenzamide]
48 | CCOc1ccc(NS(=O)(=O)c2c(C)cccc2NC(=O)c2ccc(Oc3ccccc3)cc2)cc1 [I-825, N-(2-(N-(4-ethoxyphenyl)sulfamoyl)-3-methylphenyl)-4-phenoxybenzamide]
39 | COc1ccc(NS(=O)(=O)c2cc(OC)ccc2NC(=O)c2c(OC)cccc2OC)cc1 [I-827, 2,6-dimethoxy-N-(4-methoxy-2-(N-(4-methoxyphenyl)sulfamoyl)phenyl)benzamide]
65 | O=C(Nc1ccccc1NS(=O)(=O)c1cccs1)c1cccc(Cl)c1 [I-828, 3-chloro-N-(2-(thiophene-2-sulfonamido)phenyl)benzamide]
63 | O=C1CN(S(=O)(=O)c2ccc(Cl)cc2)c2ccccc2N1 [I-829, 4-((4-chlorophenyl)sulfonyl)-3,4-dihydroquinoxalin-2(1H)-one]
60 | O=C(Nc1ccccc1NS(=O)(=O)c1cccs1)c1ccc(Br)cc1 [I-830, 4-bromo-N-(2-(thiophene-2-sulfonamido)phenyl)benzamide]
59 | COc1ccc([N+](=O)[O-])cc1S(=O)(=O)Nc1ccccc1NC(=O)c1ccc(C(C)(C)C)cc1 [I-831, 4-(tert-butyl)-N-(2-((2-methoxy-5-nitrophenyl)sulfonamido)phenyl)benzamide]
58 | O=C(Nc1ccccc1NS(=O)(=O)c1cccs1)c1ccc(Cl)cc1 [I-832, 4-chloro-N-(2-(thiophene-2-sulfonamido)phenyl)benzamide]
58 | O=C(Nc1ccccc1NS(=O)(=O)c1ccc(F)cc1)c1cccc(S(=O)(=O)C(F)(F)F)c1 [I-833, N-(2-((4-fluorophenyl)sulfonamido)phenyl)-3-((trifluoromethyl)sulfonyl)benzamide]
54 | O=C(Nc1cc(Cl)ccc1NS(=O)(=O)c1ccccc1F)c1ccc(NC(=O)C2CC2)cc1 [I-834, N-(5-chloro-2-((2-fluorophenyl)sulfonamido)phenyl)-4-(cyclopropanecarboxamido)benzamide]
52 | O=C(Nc1ccccc1NS(=O)(=O)c1cccs1)c1cc(Br)ccc1F [I-835, 5-bromo-2-fluoro-N-(2-(thiophene-2-sulfonamido)phenyl)benzamide]
49 | O=C(Nc1ccccc1NS(=O)(=O)c1cccs1)c1ccc(C(F)(F)F)cc1 [I-836, N-(2-(thiophene-2-sulfonamido)phenyl)-4-(trifluoromethyl)benzamide]
35 | O=C(Nc1ccccc1NS(=O)(=O)c1cccs1)c1ccc(Cl)cc1F [I-837, 4-chloro-2-fluoro-N-(2-(thiophene-2-sulfonamido)phenyl)benzamide]
29 | CC(C)(C)c1ccc(C(=O)Nc2ccccc2NS(=O)(=O)c2cccc(S(N)(=O)=O)c2)cc1 [I-838, 4-(tert-butyl)-N-(2-((3-sulfamoylphenyl)sulfonamido)phenyl) benzamide]

% Inhibition of Apyrase [%] | SMILES
23 | O=C(Nc1ccccc1NS(=O)(=O)c1ccc(F)cc1)c1ccc(Cl)cc1 [I-839, 4-chloro-N-(2-((4-fluorophenyl)sulfonamido)phenyl)benzamide]
18 | O=C(Nc1ccccc1NS(=O)(=O)c1cccs1)c1cc(Cl)ccc1F [I-840, 5-chloro-2-fluoro-N-(2-(thiophene-2-sulfonamido)phenyl)benzamide]
8 | O=C(Nc1ccccc1NS(=O)(=O)c1ccc2oc(=O)ccc2c1)c1ccc(Cl)cc1 [I-841, 4-chloro-N-(2-((2-oxo-2H-chromene)-6-sulfonamido)phenyl)benzamide]
5 | O=C1CCCN1c1ccccc1NS(=O)(=O)c1ccc(Br)cc1 [I-842, 4-bromo-N-(2-(2-oxopyrrolidin-1-yl)phenyl)benzenesulfonamide]
5 | O=C1Cc2cc(S(=O)(=O)Nc3ccccc3NC(=O)c3ccc(Cl)cc3)ccc2N1 [I-843, 4-chloro-N-(2-((2-oxoindoline)-5-sulfonamido)phenyl)benzamide]
5 | O=C1Cc2cccc(NS(=O)(=O)c3ccc(Cl)cc3)c2N1 [I-844, 4-chloro-N-(2-oxoindolin-7-yl)benzenesulfonamide]
1 | O=C(Nc1cc(Cl)ccc1NS(=O)(=O)c1ccccc1F)c1ccccc1 [I-845, N-(5-chloro-2-((2-fluorophenyl)sulfonamido)phenyl)benzamide]
82 | Cc1cccc(NS(=O)(=O)c2ccc(C(=O)Nc3cccc(C#N)c3)cc2)c1C [I-855, N-(3-cyanophenyl)-4-(N-(2,3-dimethylphenyl)sulfamoyl)benzamide]
76 | CC1Cc2ccccc2N1C(=O)c1ccc(S(=O)(=O)Nc2ccccc2)cc1 (centres unmarked) [I-857, 4-(2-methylindoline-1-carbonyl)-N-phenylbenzenesulfonamide]
76 | COc1ccc2c(c1)CCCN2C(=O)c1ccc(S(=O)(=O)Nc2ccc(F)cc2)cc1 [I-858, N-(4-fluorophenyl)-4-(6-methoxy-1,2,3,4-tetrahydroquinoline-1-carbonyl)benzenesulfonamide]
72 | Cc1ccc(NC(=O)c2ccc(C(=O)Nc3ccc(C)cc3)cc2)cc1 [I-859, N1,N4-di-p-tolylterephthalamide]
71 | O=C(c1ccc(S(=O)(=O)Nc2ccccc2)cc1)N1CCc2ccccc21 [I-860, 4-(indoline-1-carbonyl)-N-phenylbenzenesulfonamide]
68 | CSc1cccc(NC(=O)c2ccc(C(=O)Nc3cccc(SC)c3)cc2)c1 [I-861, N1,N4-bis(3-(methylthio)phenyl)terephthalamide]
61 | Cc1ccc(NS(=O)(=O)c2ccc(C(=O)Nc3ccc(C)cc3Br)cc2)cc1 [I-862, N-(2-bromo-4-methylphenyl)-4-(N-(p-tolyl)sulfamoyl)benzamide]
59 | Cc1ccc(Cl)cc1NC(=O)c1ccc(S(=O)(=O)N2CCCc3ccccc32)cc1 [I-863, N-(5-chloro-2-methylphenyl)-4-((3,4-dihydroquinolin-1(2H)-yl)sulfonyl)benzamide]
59 | CC(C)c1ccc(NC(=O)c2ccc(S(=O)(=O)N3CCCc4ccccc43)cc2)cc1 [I-864, 4-((3,4-dihydroquinolin-1(2H)-yl)sulfonyl)-N-(4-isopropylphenyl)benzamide]
59 | CN(c1ccccc1)S(=O)(=O)c1ccc(C(=O)N2CCc3ccccc32)cc1 [I-865, 4-(indoline-1-carbonyl)-N-methyl-N-phenylbenzenesulfonamide]
58 | COc1ccc2c(c1)CCCN2C(=O)c1ccc(S(=O)(=O)N2CCCc3ccccc32)cc1 [I-866, (4-((3,4-dihydroquinolin-1(2H)-yl)sulfonyl)phenyl)(6-methoxy-3,4-dihydroquinolin-1(2H)-yl)methanone]
58 | COc1ccccc1N(C)S(=O)(=O)c1ccc(C(=O)N2CCSc3ccccc32)cc1 [I-867, 4-(3,4-dihydro-2H-benzo[b][1,4]thiazine-4-carbonyl)-N-(2-methoxyphenyl)-N-methylbenzenesulfonamide]
58 | CCN(CC)S(=O)(=O)c1cccc(NC(=O)c2ccc(S(=O)(=O)N3CCCc4ccccc43)cc2)c1 [I-868, N-(3-(N,N-diethylsulfamoyl)phenyl)-4-((3,4-dihydroquinolin-1(2H)-yl)sulfonyl)benzamide]
57 | COc1ccccc1N(C)S(=O)(=O)c1ccc(C(=O)N2CCc3ccc([N+](=O)[O-])cc32)cc1 [I-869, N-(2-methoxyphenyl)-N-methyl-4-(6-nitroindoline-1-carbonyl)benzenesulfonamide]
57 | COc1ccccc1N(C)S(=O)(=O)c1ccc(C(=O)N2CCc3ccccc32)cc1 [I-870, 4-(indoline-1-carbonyl)-N-(2-methoxyphenyl)-N-methylbenzenesulfonamide]
